Patent publication CN109223750A, “琥珀酸在防治对虾肠炎中的应用” (South China Sea Fisheries Research Institute Chinese …, priority 2018, dated 2019)
Where two headings read alike, the source gives them in different places.

Legend:
NF-κB = details: 7 days, versus enteritis model group
TNF-α = details: 7 days, versus enteritis model group
IL-10 = details: 7 days, versus enteritis model group
IL-1β = details: 7 days, versus enteritis model group
[1] = system: shrimp intestinal mucosa (对虾 肠道黏膜); details: 7 days; for intestinal mucosal damage (histopathology): HE, ×200
[2] = cited from earlier work
bacteria (细菌) = details: by raising bacterial proton motive force; cited from earlier work
[3] = system: tilapia-derived Streptococcus agalactiae β-haemolysin/cytolysin (罗非鱼源无乳链球菌β-溶血/溶细胞素); details: cited from earlier work
HIF-1α = details: through activation of HIF-1α; cited from earlier work

O=C(O)CCC(=O)O [琥珀酸]
NF-κB expression (NF-κB; high dose: 1% in feed): 显著降低
NF-κB expression (NF-κB; low dose: 0.25% in feed): 显著降低
TNF-α expression (TNF-α; high dose: 1% in feed): 显著降低
TNF-α expression (TNF-α; low dose: 0.25% in feed): 显著降低
IL-10 expression (IL-10; high dose: 1% in feed): 显著降低
IL-10 expression (IL-10; low dose: 0.25% in feed): 显著降低
IL-1β expression (IL-1β; high dose: 1% in feed): 显著降低
IL-1β expression (IL-1β; low dose: 0.25% in feed): 显著降低
intestinal mucosal damage (histopathology) ([1]; high dose: 1% succinic acid in basal feed): 肠道黏膜损伤已修复,形态完整,结构清晰
intestinal epithelial cell height ([1]; high dose: 1% succinic acid in basal feed, versus blank control group and versus low-dose group): 均有明显增加
intestinal mucosal damage (histopathology) ([1]; low dose: 0.25% succinic acid in basal feed): 肠道黏膜损伤已修复,形态完整,结构清晰
intestinal epithelial cell height ([1]; low dose: 0.25% succinic acid in basal feed, versus blank control group): 有明显增加
antibacterial and antioxidant function ([2]; in vivo): 提高
feed conversion ratio ([2]; shrimp): 降低
sensitivity of bacteria to antibiotics (bacteria (细菌)): 能够提高细菌对抗生素的敏感性
activity of β-haemolysin/cytolysin [3]: 抑制
IL-1β secretion, inflammation (HIF-1α): 诱导IL-1β分泌促进炎症
